{"source": "patent US5473074A", "about": "“Adenosine diphosphoribose polymerase binding nitroso aromatic compounds useful as retroviral inactivating agents, anti-retroviral agents and anti-tumor agents-54” (priority 1992, dated 1995)", "key": {"[1]": {"system": "cancer cells (855-2 and HL-60 leukemia, D32, D37 and CRL 7712 glioblastoma, 186 medulla tumor, L1210 murine leukemia, MDA-468 human breast tumor)", "assay": "Functions of cancer cells in absence or presence of compounds (FIGS. 4-9)", "format": "cell-based", "procedure": "(§1) Experiments were performed in which the functions of various cancer cells (855-2 and HL-60 leukemia cells, D32, D37 and CRL 7712 glioblastoma cell lines, 186 medulla tumor cell line, L1210 murine leukemia cell line, MDA-468 human breast tumor cell line) and normal cells (neutrophil leukocytes and bone marrow or peripheral blood stream cells) were assessed in the absence or presence of the compounds."}, "HIV-1": {"system": "HIV-1", "assay": "Anti-HIV action on stimulated human lymphoblasts, virus titer", "format": "cell-based", "settings": "30 min exposure, virus alone 5.25", "experimental": "VIII. Anti-HIV action of NOBP, NOBA and NOQ on stimulated human lymphoblasts\nExposure to the two drugs was only for 30 minutes at the commencement of viral infection, and drugs were never re-added. The results given in Table III provide the ID50 of HIV titer 10 days after infection of cell cultures with HIV."}, "ADPRT": {"system": "ADPRT", "settings": "cited from earlier work"}, "[2]": {"system": "malignant transformation / neoplasia", "settings": "in vitro and in vivo; Tseng, et al.; cited from earlier work"}, "calf thymus ADPRT": {"target": "calf thymus ADPRT (Bos taurus, UniProt P18493)", "sequence (P18493 whole entry)": "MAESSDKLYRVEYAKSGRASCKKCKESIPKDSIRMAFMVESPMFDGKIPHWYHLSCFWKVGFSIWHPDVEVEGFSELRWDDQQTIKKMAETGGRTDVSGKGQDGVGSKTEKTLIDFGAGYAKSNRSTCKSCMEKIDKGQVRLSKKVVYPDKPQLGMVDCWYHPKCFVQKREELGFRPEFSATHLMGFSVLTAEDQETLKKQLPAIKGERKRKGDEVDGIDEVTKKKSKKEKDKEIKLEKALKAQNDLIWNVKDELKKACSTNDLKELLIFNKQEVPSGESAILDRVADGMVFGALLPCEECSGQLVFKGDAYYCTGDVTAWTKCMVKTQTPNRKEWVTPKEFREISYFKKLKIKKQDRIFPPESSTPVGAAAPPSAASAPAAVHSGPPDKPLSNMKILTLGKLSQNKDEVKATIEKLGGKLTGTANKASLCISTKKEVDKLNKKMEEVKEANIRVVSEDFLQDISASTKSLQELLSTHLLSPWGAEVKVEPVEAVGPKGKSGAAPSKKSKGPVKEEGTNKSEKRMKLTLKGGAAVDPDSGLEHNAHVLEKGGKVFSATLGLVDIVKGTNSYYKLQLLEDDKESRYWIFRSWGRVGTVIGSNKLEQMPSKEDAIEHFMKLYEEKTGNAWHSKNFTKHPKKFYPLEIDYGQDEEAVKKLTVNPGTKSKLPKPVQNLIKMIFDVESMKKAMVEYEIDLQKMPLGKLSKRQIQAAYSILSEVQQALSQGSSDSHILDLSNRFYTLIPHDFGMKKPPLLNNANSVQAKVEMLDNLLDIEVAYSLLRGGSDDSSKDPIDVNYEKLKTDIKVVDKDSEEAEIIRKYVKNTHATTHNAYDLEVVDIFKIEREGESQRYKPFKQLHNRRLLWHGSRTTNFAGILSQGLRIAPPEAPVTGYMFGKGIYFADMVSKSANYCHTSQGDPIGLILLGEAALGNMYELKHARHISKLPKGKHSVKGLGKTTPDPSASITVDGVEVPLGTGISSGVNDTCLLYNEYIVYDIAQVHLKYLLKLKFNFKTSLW", "assay": "ADPRT polymerase activity inhibition/inactivation (I50)", "procedure": "The compounds of the subject invention were tested for their ability to inactivate the polymerase activity of adenosinediphosphoribosyl transferase (ADPRT). Assays were performed according to the method of Buki and Kun, Biochem. 27:5990-5995 (1988), using calf thymus ADPRT.\nAssay conditions: ADPRT, 0.4 μg; coDNA, 4 μg; inhibitor diluted\nbetween 0.8 and 600 μM, in 50 μl of 50 mM TrisHCl, 50 mM KCl, 5 mM\n2mercaptoethanol, 0.5 mM EDTA, 0.1 mM NAD ([32Plabelled), pH 7.5.\nPolymerization at 25° C. for 4 minutes."}, "[3]": {"system": "normal rhesus bone marrow stem cells", "assay": "CFU stem cell toxicity assay, FIG. 5A"}, "[4]": {"target": "Zn(HIV1-F1), N-terminal CCHC zinc finger of the HIV-1 NC protein (Human immunodeficiency virus type 1 lw12.3 isolate, UniProt Q70622)", "settings": "Summers, et al.; cited from earlier work"}, "K562 cells": {"system": "K562 cells", "assay": "[3H]thymidine uptake, K562 cells", "format": "cell-based, human", "settings": "10% fetal bovine serum"}, "[5]": {"system": "human peripheral blood neutrophil leukocytes"}, "[6]": {"system": "normal cells (neutrophil leukocytes and bone marrow or peripheral blood stem cells)", "procedure": "as §1"}, "855-2 cells [7]": {"system": "855-2 cells", "assay": "[3H]thymidine uptake / growth, 855-2 cells", "format": "cell-based, human"}, "[8]": {"system": "normal human stem cells (PBSC)", "assay": "Colony formation (CFU-GM) of normal human stem cells (PBSC), FIG. 5B", "format": "cell-based", "settings": "0, 2, 4, 8 and 10 μM"}, "[9]": {"system": "human peripheral blood neutrophil leukocytes", "assay": "Superoxide generation by human neutrophils", "settings": "10 μM; 10^5 PMN + PMA (control 55.9 ± 7.7)"}, "HL-60 cells": {"system": "HL-60 cells", "assay": "Colony formation (CFU) in semi-solid medium, HL-60", "format": "cell-based, human", "settings": "single cells in semi-solid medium"}, "cells / HIV": {"system": "cells / HIV", "assay": "Anti-tumor / anti-HIV (biological) action, general statement"}, "855-2 leukemia cells": {"system": "855-2 leukemia cells", "assay": "855-2 growth inhibition, comparison with vincristine (FIG. 7)", "format": "cell-based, human", "experimental": "Vincristine, a highly toxic chemotherapeutic compound, is currently used in the treatment of leukemia and other malignancies. […] Vincristine was tested in doses of 0.1, 1, 10 and 100 μM."}, "[10]": {"system": "human leukemia cell lines (855-2, H9, HL-60, K562)", "assay": "[3H]thymidine uptake, human leukemia cell lines (FIG. 2)", "format": "cell-based", "experimental": "FIGS. 2A-2F are composite of graphs displaying the inhibitory effects of the ADRPT ligands on (FIG. 2A) 855-2 cells (a cell line of human B-cell lineage acute lymphoblastic leukemia), (FIG. 2B) H9 cells (a cell line of human T-cell lineage acute lymphoblastic leukemia), (FIG. 2C) HL-60 cells (a cell line of human acute nonlymphoblastic leukemia) and (FIG. 2D) K562 cells (a cell line of human chronic myelogenous leukemia). These cells were cultured while under the influence of the growth factors in 10% fetal bovine serum (FCS), whereas in (FIG. 2E) and (FIG. 2F) the 855-2 cells were cultured in the presence of autocrine growth factor activity (AGF) or low molecular weight-B-cell growth factor (BCGF, a T-cell derived lymphokine), respectively."}, "855-2 cells [11]": {"system": "855-2 cells", "assay": "Colony formation (CFU) in semi-solid medium, 855-2", "format": "cell-based, human", "settings": "single cells in semi-solid medium"}, "H9 cells": {"system": "H9 cells", "assay": "[3H]thymidine uptake, H9 cells", "format": "cell-based, human", "settings": "10% FCS"}, "855-2 cells [12]": {"system": "855-2 cells", "assay": "MTT assay, cytocidal activity", "format": "cell-based, human", "settings": "10 μM, 100,000 cells/ml", "experimental": "MTT (3-[4,5-[…]]-2,5-diphenyltetrazolium bromide) at 1 mg/ml was then added for 16 hours. The absorbance of the pelleted cell was then measured at 550 nm after adding DMSO to solubilze the cells."}, "[13]": {"settings": "not told"}}, "note": "Entries after “also recorded” stand apart in the source; their conditions may differ. Where two headings read alike, the source gives them in different places."}
{"compound": "O=c1ccc2cc([N+](=O)[O-])ccc2o1", "note": "[NO2 BP, 6-nitro-1,2-benzopyrone]", "values": [{"measurement": "activity against tumor cells, in words", "setting": "[1]", "value": "weakly active"}, {"measurement": "activity against tumor cells, in words", "setting": "[1]; listed as 6-nitro derivative", "value": "almost ineffective (against tumor cells)"}, {"measurement": "Virus Titer (log ID50), 10 days", "setting": "HIV-1; 250 μM", "value": 4.93, "unit": "log ID50"}]}
{"compound": "c1ccc2cnccc2c1", "note": "[isoquinoline]", "values": [{"measurement": "inhibition of ADPRT polymerase activity, in words", "setting": "ADPRT", "value": "known to inhibit ADPRT polymerase activity"}]}
{"compound": "O=c1ccc2ccccc2o1", "note": "[coumarin (1,2-benzopyrone), 1,2-benzopyrone]", "values": [{"measurement": "anti-transforming and anti-neoplastic effect, in words", "setting": "[2]", "value": "anti-transforming and anti-neoplastic effect"}, {"measurement": "inhibition of ADPRT polymerase activity, in words", "setting": "ADPRT", "value": "known to inhibit ADPRT polymerase activity"}, {"measurement": "inhibition of ADPRT polymerase activity, in words", "setting": "ADPRT; listed as 1,2-benzopyrone (coumarin)", "value": "inhibitory ligand of adenosinediphosphoribosyl transferase (ADPRT)"}]}
{"compound": "3-aminonaphthylhydrazide", "values": [{"measurement": "inhibition of ADPRT polymerase activity, in words", "setting": "ADPRT", "value": "known to inhibit ADPRT polymerase activity"}]}
{"compound": "Nc1ccc2oc(=O)ccc2c1", "note": "[ABP, 6-amino-1,2-benzopyrone]", "values": [{"measurement": "Virus Titer (log ID50), 10 days", "setting": "HIV-1; 500 μM", "value": 4.50, "unit": "log ID50"}, {"measurement": "IC50", "setting": "calf thymus ADPRT", "value": 370, "unit": "µM"}, {"measurement": "CFU stem cell toxicity, in words", "setting": "[3]; 1 mM", "value": "toxic at the tested given doses"}, {"measurement": "ADPRT binding, in words", "setting": "ADPRT; site that also binds to DNA, Hakam, et al.", "value": "binds specifically to ADRPT at the site that also binds to DNA"}]}
{"compound": "O=C(O)CN(CCN(CC(=O)O)CC(=O)O)CC(=O)O", "note": "[EDTA]", "values": [{"measurement": "molar excess required to remove zinc from Zn(HIV-1-F1)", "setting": "[4]", "value": "10 -fold molar excess"}]}
{"compound": "O=Nc1ccc2oc(=O)ccc2c1", "note": "[NOBP, 6-nitroso-1,2-benzopyrone]", "values": [{"measurement": "activity against tumor cells, in words", "setting": "[1]", "value": "highly effective (against tumor cells)"}, {"measurement": "inhibition of cell growth (thymidine uptake), K562", "setting": "K562 cells; 100 μM", "value": "almost complete inhibition"}, {"measurement": "relative potency, K562", "setting": "K562 cells", "value": "most potent inhibitors of cell growth; also recorded: almost as potent as NOQ"}, {"measurement": "superoxide generation, in words", "setting": "[5]", "value": "Only minor reductions in superoxide generation"}, {"measurement": "effect on normal stem cell colony formation (FIG. 5), in words", "setting": "[6]", "value": "minimal effect on normal cells"}, {"measurement": "effect on viability of normal cells, in words", "setting": "[6]", "value": "not to affect adversely the viability of normal cells"}, {"measurement": "toxicity to normal cells, in words", "setting": "[6]", "value": "not toxic to normal cells"}, {"measurement": "Virus Titer (log ID50), 10 days", "setting": "HIV-1; 10 μM", "value": 2.01, "unit": "log ID50"}, {"measurement": "relative inhibition of thymidine uptake, 855-2", "setting": "855-2 cells [7]; 1 μM, 10% fetal bovine serum", "value": "somewhat more inhibition than NOBA"}, {"measurement": "inhibition of thymidine uptake, 855-2", "setting": "855-2 cells [7]; 10 μM, 10% fetal bovine serum", "value": "almost complete inhibition"}, {"measurement": "growth arrest of 855-2 cells at increasing serum concentration", "setting": "855-2 cells [7]; 10 μM, increasing FCS", "value": "Growth arrest occurs irrespective of the concentration of FCS"}, {"measurement": "relative potency, 855-2", "setting": "855-2 cells [7]; 10% fetal bovine serum", "value": "potent inhibitory effects regardless of the source of growth factor activity"}, {"measurement": "cytotoxicity on CFU-GM of PBSC, in words", "setting": "[8]", "value": "Toxicity was not detected"}, {"measurement": "superoxide generation by human neutrophils (mean + S.D., n = 11)", "setting": "[9]", "value": "34.1 ± 14.1", "unit": "nmol O2^- /hr/10^5 cells"}, {"measurement": "colony formation, HL-60, in words", "setting": "HL-60 cells", "value": "inhibit the ability of human leukemic cells (855-2 and HL-60) to form colonies"}, {"measurement": "anti-tumor and anti-HIV activity, in words", "setting": "cells / HIV", "value": "highly active as anti-tumor and anti-HIV molecules"}, {"measurement": "effectiveness after short exposure of cells", "setting": "cells / HIV; exposure as short as 30 minutes", "value": "effective even after exposure of cells for a period as short as 30 minutes"}, {"measurement": "potency relative to vincristine", "setting": "855-2 leukemia cells; vs equal concentration of vincristine", "value": "about 10 times more potent"}, {"measurement": "inhibition of 3H-thymidine uptake, in words", "setting": "[10]; 10 μM, 855-2, H9, HL-60, K562 cells", "value": "powerfully inhibited 3H-thymidine uptake"}, {"measurement": "molar concentrations needed to inhibit 3H-thymidine uptake, in words", "setting": "[10]; each of the cell lines tested", "value": "able to inhibit 3H-thymidine uptake in lower molar concentrations than the other compounds"}, {"measurement": "colony formation, 855-2, in words", "setting": "855-2 cells [11]", "value": "inhibit the ability of human leukemic cells (855-2 and HL-60) to form colonies"}, {"measurement": "inhibition of thymidine uptake, H9", "setting": "H9 cells; 100 μM", "value": "almost complete inhibition"}, {"measurement": "inhibition at 10 µM", "setting": "H9 cells; Homo sapiens, H9, 10 μM", "value": "~30", "unit": "%"}, {"measurement": "IC50", "setting": "calf thymus ADPRT", "value": 40, "unit": "µM"}, {"measurement": "killing of 855-2 cells (MTT), in words", "setting": "855-2 cells [12]", "value": "complete killing"}]}
{"compound": "NC(=O)c1ccccc1", "note": "[benzamide]", "values": [{"measurement": "inhibition of ADPRT polymerase activity, in words", "setting": "ADPRT", "value": "known to inhibit ADPRT polymerase activity"}]}
{"compound": "Nc1ccc2oc(=O)ccc2c1I", "note": "[IABP, 5-iodo-6-amino-1,2-benzopyrone]", "values": [{"measurement": "Virus Titer (log ID50), 10 days", "setting": "HIV-1; 250 μM", "value": 4.66, "unit": "log ID50"}, {"measurement": "IC50", "setting": "calf thymus ADPRT", "value": 41, "unit": "µM"}, {"measurement": "CFU stem cell toxicity, in words", "setting": "[3]; 250 μM", "value": "toxic at the tested given doses"}, {"measurement": "inhibition of ADPRT polymerase activity, in words", "setting": "ADPRT", "value": "known ADPRT polymerase activity inhibitors"}]}
{"compound": "O=c1c(O)c(-c2ccc(O)c(O)c2)oc2cc(O)cc(O)c12", "note": "[quercetin]", "values": [{"measurement": "inhibition of ADPRT polymerase activity, in words", "setting": "ADPRT", "value": "known to inhibit ADPRT polymerase activity"}]}
{"compound": "O=Nc1ccc2oc(=O)ccc2c1I", "note": "[5-I-6-NO-1,2-benzopyrone, 5-iodo-6-nitroso-1,2-benzopyrone]", "values": [{"measurement": "biological action relative to 6-NO-1,2-benzopyrone", "setting": "cells / HIV; vs 6-NO-1,2-benzopyrone", "value": 10, "unit": "times weaker"}, {"measurement": "ADPRT inhibition, in words", "setting": "calf thymus ADPRT", "value": "relatively poor inhibitor of ADRPT"}, {"measurement": "IC50", "setting": "calf thymus ADPRT", "value": 400, "unit": "µM"}, {"measurement": "permeation, in words", "setting": "[13]", "value": "poor permeant molecule"}]}
{"compound": "CC[C@]1(O)C[C@H]2CN(CCc3c([nH]c4ccccc34)[C@@](C(=O)OC)(c3cc4c(cc3OC)N(C=O)[C@H]3[C@@](O)(C(=O)OC)[C@H](OC(C)=O)[C@]5(CC)C=CCN6CC[C@]43[C@@H]65)C2)C1", "note": "[vincristine, reference compound]", "values": [{"measurement": "concentration required to produce the same level of inhibition as 10 μM NOBP", "setting": "855-2 leukemia cells; in vitro", "value": 100, "unit": "µM"}]}
